# Data: article PMC7139549, “TLD1433 Photosensitizer Inhibits Conjunctival Melanoma Cells in Zebrafish Ectopic and Orthotopic Tumour Models” (Cancers, 2020)
# Test system: CRMM2 cells injected into the Duct of Cuvier of zebrafish embryos
# Assay: Zebrafish ectopic CM tumour model, CRMM2
# Assay type: in vivo, Zebrafish (Danio rerio)
# Details: for PI (Fluorescence Intensity) / PI (Tumour Area) / Relative Tumour Burden as Measured by Fluorescence Intensity / Tumour Area: CRMM2, Ectopic Model; for PI (Fluorescence Intensity) / PI (Tumour Area): 0 vs 114 J.cm^−2
# Protocol: The zebrafish ectopic conjunctival melanoma tumour model has been described previously. In this model, around 200 fluorescent CM cells are injected into the Duct of Cuvier at 2 dpf, and then disseminate through the blood circulation and grow in the head and tail. To establish the orthotopic tumour model, around 100 red, (td)Tomato fluorescent CRMM1 or CRMM2 cells were injected RO at 2 dpf into tg(Fli:GFP/Casper), endothelial reporter transgenic zebrafish with green fluorescent vasculature and examined by fluorescent microscopy at day 1 and 4 after engraftment (Figure 6A). Tumour expansion at the injection site was measured as fluorescence intensity and tumour area.
# For cancer cell injection, two days post-fertilization (dpf), dechorionated zebrafish embryos were anaesthetized with 0.003% tricaine (Sigma) and plated on a 10 cm Petri dish covered with 1.5% of solidified agarose. CRMM1 and CRMM2 cells were suspended in PBS containing 2% polyvinylpyrrolidone (PVP; Sigma-Aldrich) with a concentration of 50,000 cells/µL and loaded into borosilicate glass capillary needles (1 mm O.D. × 0.78 mm I.D.; Harvard Apparatus). In the ectopic model, 200 (td)Tomato fluorescent CM cells were injected into the Duct of Cuvier or at 2 dpf, which led to dissemination through the blood circulation and outgrowth in the head and tail. In orthotopic tumour model, 100 (td)Tomato fluorescent CRMM1 or CRMM2 cells were injected RO in 2 dpf embryos using a Pneumatic Picopump and a manipulator (WPI). After injection, the embryos were incubated in a 34 °C incubator. Images were acquired at 1-, 2- and 4-days post injection (dpi) with a Leica M165 FC stereo fluorescence microscope. Tumor growth was quantified by calculating the total fluorescence intensity and area with the ZF4 pixel counting program (Leiden). Each experiment was performed at least 3 times with a group size of >30 embryos.
# Fluorescent CRMM1 and CRMM2 cells were injected at 2 dpf into the Duct of Cuvier (ectopic model) and behind the eye (orthotopic model) and TLD1433 was delivered by WA, IV and RO administration with or without a light treatment as described in 4.8. For the WA administration, the 4.6 nM TLD1433 solution was added to the tumour cells injected zebrafish at 2.5, 3.5, 4.5, 5.5 dpf and maintained for 12 h. At 3, 4, 5, 6 dpf, the fish water was refreshed, and after 1 h, embryos were exposed to green light for 90 min (21 mW/cm^2, 114 J/cm^2, 520 nm). For the IV and RO administration, 1 nL of 2.3 mM TLD1433 solution was injected via the dorsal vein or the RO site at 3, 4, 5, 6 dpf. After 1 h interval, the embryos were exposed to green light for 90 min (21 mW/cm^2, 114 J/cm^2, 520 nm). After treatment, the embryos images were acquired with a Leica M165 FC stereo fluorescence microscope. Tumor growth was quantified by calculating the total fluorescence intensity and area with the ZF4 pixel counting program (Leiden). Each experiment was performed at least 3 times with a group size of >30 embryos.
# [1] = Intravenous (1 nL of 2.3 mM), Light Dose 0 J.cm^−2, vs control dark group (100%)
# [2] = Intravenous (1 nL of 2.3 mM), Light Dose 114 J.cm^−2, vs control dark group (100%)
# [3] = Water (4.6 nM), Light dose 0 J.cm^−2, vs control dark group (100%)
# [4] = Water (4.6 nM), Light dose 114 J.cm^−2, vs control dark group (100%)
# [5] = CRMM2, ectopic model, IV 2.3 mM, light 114 J.cm^−2
# [6] = CRMM2, ectopic model, RO 2.3 mM, green light 114 J.cm^−2
smiles,measurement,setting,value
Cc1ccnc(-c2cc(C)ccn2)c1.Cc1ccnc(-c2cc(C)ccn2)c1.[Cl-].[Cl-].[Ru+2].c1csc(-c2ccc(-c3ccc(-c4nc5c6cccnc6c6ncccc6c5[nH]4)s3)s2)c1 [TLD1433],PI (Fluorescence Intensity),Intravenous (1 nL of 2.3 mM),1.4
same,PI (Tumour Area),Intravenous (1 nL of 2.3 mM),2.0
same,Relative Tumour Burden as Measured by Fluorescence Intensity,[1],97%
same,Tumour Area,[1],99%
same,Relative Tumour Burden as Measured by Fluorescence Intensity,[2],69%
same,Tumour Area,[2],50%
same,PI (Tumour Area),Retro orbital (1 nL of 2.3 mM),2.0
same,Tumour Area,"Retro orbital (1 nL of 2.3 mM), Light dose 0 J.cm^−2, vs control dark group (100%)",94%
same,Tumour Area,"Retro orbital (1 nL of 2.3 mM), Light dose 114 J.cm^−2, vs control dark group (100%)",48%
same,PI (Fluorescence Intensity),Retro-orbital (1 nL of 2.3 mM),1.6
same,Relative Tumour Burden as Measured by Fluorescence Intensity,"Retro-orbital (1 nL of 2.3 mM), Light Dose 0 J.cm^−2, vs control dark group (100%)",93%
same,Relative Tumour Burden as Measured by Fluorescence Intensity,"Retro-orbital (1 nL of 2.3 mM), Light Dose 114 J.cm^−2, vs control dark group (100%)",60%
same,PI (Fluorescence Intensity),Water (4.6 nM),0.93
same,PI (Tumour Area),Water (4.6 nM),0.90
same,Relative Tumour Burden as Measured by Fluorescence Intensity,[3],90%
same,Tumour Area,[3],92%
same,Relative Tumour Burden as Measured by Fluorescence Intensity,[4],96%
same,Tumour Area,[4],102%
same,inhibition of tumour area,[5],50%
same,inhibition of tumour fluorescence intensity,[5],31%
same,diminished fluorescence intensity,[6],40%
same,diminished tumour area,[6],52%
same,effect on tumour burden (in words),"CRMM2, ectopic model, WA at the MTD (4.6 nM), light 114 J.cm^−2",did not inhibit tumour burden
